Laboratory results reported in patent publication US8871794B2, “Small-molecule agonists for type-2 orexin receptor” (Board of Regents, The University of Texas System, priority 2008, dated 2014).
Where no end group is shown, it is not given here.

How the values were obtained:
wild type C57BL/6J mice = test: Emergence from isoflurane anesthesia (return of righting reflex); format: in vivo, mouse
Method: Loss and Return of Righting Reflex. Induction and emergence from isoflurane or sevoflurane were defined behaviorally as the respective loss and return of the righting reflex and were evaluated as follows. Wild-type C57BL/6J male mice aged 8-14 weeks (Jackson Laboratories). were placed in cylindrical gas-tight, controlled-environment chambers arrayed in parallel (35). After 90 min of habituation with 100% oxygen each day on two successive days, anesthesia was induced with a Drager model 19.1 isoflurane or sevoflurane vaporizer by using 8-12 stepwise incremental increases in the concentration of anesthetic gas dissolved in 100% oxygen. Anesthetic gas concentrations were determined in triplicate during the last 2 min at each step (35). Initial volatile anesthetic concentrations were 0.44% isoflurane or 0.96% sevoflurane. After 15 min at each concentration to allow for equilibration of the mouse with the anesthetic vapors, the concentration of volatile anesthetic was increased by 6±3% of the preceding value. […]
Pharmacologic Inhibition of Orexin Signaling and Righting Reflex Studies. To determine the effect of the orexin-1R antagonist, SB-334867-A (Tocris Bioscience), on induction of anesthesia, 24 C57BL/6J mice were evaluated for both the concentration at which the righting reflex was lost as well as a separate experiment to measure the latency to loss of righting. […]

wild-type mice = test: Diet-induced obesity in mice; format: in vivo, mouse
Excerpt: To examine whether enhanced OX2R signaling causes resistance to diet-induced obesity, an OX2R selective agonist, [Ala11, D-Leu15] Orexin-B (Akanmu and Honma, 2005 Brain. Res. 1048. 138-145.; Asahi et al., 2003 Bioorg. Med. Chem. Lett. 13.
111-113) was continuously infused in the lateral ventricles of wild-type mice for 14 days. […] There was no effect of the OX2R selective agonist for OX2R-deficient mice on a high fat diet (n=4, weight gain 3.33±0.61 g), verifying the selectivity of the agonist in vivo.

[1] = tested on: orexin/ataxin-3-transgenic mice; test: Cataplexy testing in orexin/ataxin-3-transgenic mice; format: in vivo; details: 3 nmol per mouse i.c.v., first 3 h after injection, vs vehicle
Excerpt: (§1) Aspects of this example, including more detailed descriptions of the production of the CAG/orexin-transgenic mice, the cataplexy testing, cannulation (i.c.v.) and orexin administration and EEG/EMG recordings were published in Mieda et al., PNAS USA Mar. 30, 2004; 101(13):4649-54.
(§2) We administered orexin-A, a nonselective agonist for orexin receptor type 1 (OX1R) and OX2R.
We examined whether i.c.v. orexin-A administration suppresses cataplectic arrests in orexin/ataxin-3-transgenic mice. By using a randomized crossover design, we administered vehicle and orexin-A to all mice during separate experimental sessions. […] Thus, i.c.v. administration of orexin-A is sufficient to acutely suppress behavioral arrests in this model of narcolepsy.

[2] = tested on: orexin/ataxin-3 mice and wild-type controls; test: EEG/EMG sleep/wake recording in orexin/ataxin-3 and wild-type mice; format: in vivo, mouse
Excerpt: as §1, §2
To quantify the effects of orexin-A administration on sleep/wake status, we recorded EEG/EMG in orexin/ataxin-3 mice, as well as wild-type controls. […] Nevertheless, some pharmacological effects of exogenous orexins have been reported to vary with time of day (Zeitgeber-dependent effects). We therefore examined the effects of orexin-A administrations in mice both at the onset of the dark (active) phase as well as during the light (resting) phase, again by using a randomized crossover design.

[3] = 0.5 nmol/d infused in lateral ventricles, 14 days, wild-type mice
[4] = 3 nmol i.c.v., regardless of genotype and time of administration

Compound: Cc1nc2ccc(NC(=O)Nc3ccnc4cccnc34)cc2o1.Cl [SB-334867-A]
- emergence from isoflurane anesthesia, dose dependence (wild type C57BL/6J mice; 5 mg/kg or 20 mg/kg i.p., 1.25% isoflurane): dose-dependent delay in emergence
- emergence from isoflurane anesthesia (wild type C57BL/6J mice; 20 mg/kg i.p. (F2,45=8.80, P<0.001)): significantly delayed emergence

Compound: [Ala11, D-Leu15] Orexin-B
- weight gain on a high fat diet (wild-type mice; [3]): suppressed weight gain
- weight homeostasis on a low fat diet (wild-type mice; [3]): without altering weight homeostasis
- fat mass gain vs vehicle on a high fat diet (wild-type mice; 14 days, wild-type mice, high fat diet): gained significantly less fat mass
- fat mass gain on a low fat diet (wild-type mice; 14 days, wild-type mice, low fat diet): no effect was observed
- effect for OX2R-deficient mice on a high fat diet (wild-type mice; OX2R-deficient mice, high fat diet): no effect
- weight gain (wild-type mice; OX2R-deficient mice, high fat diet, n=4): 3.33 ± 0.61 g
- change in LEPR, POMC, SOCS3, STAT3 transcripts (wild-type mice; after 14 days): no significant change
- hypothalamic mRNA expression of orexigenic factors NPY and AGRP (wild-type mice; after 14 days, high fat diet compared to low fat diet): reduced hypothalamic mRNA expression
- food intake (wild-type mice; high fat vs low fat diet): reduced food intake only on a high fat but not on low fat diet

Compound: orexin-A: a nonselective agonist for orexin receptor type 1 (OX1R) and OX2R (QPLPDCCRQKTCSCRLYELLHGAGNHAAGILTL; ends and bridges not checked; cysteine pairing not given here; UniProt O43612 34-66, looked up)
- frequency of cataplectic arrests [1]: significantly reduced
- overall time spent in cataplexy [1]: significantly reduced
- non-REM sleep in narcoleptic animals compared with wild-type ([2]; 3 nmol i.c.v., 3-h period): significantly greater suppressions of non-REM sleep
- wakefulness in orexin/ataxin-3-transgenic mice compared with wild-type mice ([2]; 3 nmol i.c.v., 3-h period): significantly greater amounts of wakefulness
- elevation of REM sleep in narcoleptic mice ([2]; 3 nmol i.c.v., dark phase): effectively suppressed this elevation of REM sleep
- non-REM and REM sleep [2, 4]: suppressed both non-REM and REM sleep
- wakefulness [2, 4]: strikingly increased wakefulness
- REM sleep suppression, narcoleptic mice vs wild-type controls ([2]; 3 nmol i.c.v., regardless of the time of administration): more effective at suppressing REM sleep in narcoleptic mice than in wild-type controls
- effects in knockout mice lacking both OX1R and OX2R genes ([2]; 3 nmol per mouse i.c.v.): no detectable effects
- cumulative wakefulness and cumulative sleep in narcoleptic animals ([2]; 24 h after a nocturnal administration): statistically significant increase of cumulative wakefulness and a decrease of cumulative sleep
- immediate rebounds of sleep ([2]; after dark-phase or light-phase administration): no immediate rebounds of sleep were observed
